Ten molecules from ChEMBL document CHEMBL1201862, “PubChem BioAssay data set” (2004) can be followed below.

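Each compound was tested at five concentrations against cells in 96-well plates for 48 hours. GI50: concentration for 50% inhibition of growth.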 The source made the active and inactive calls. Rule as the data show it: active = GI50 up to about 1.1 µM and inactive = higher.

Some test systems named below: T47D; MDA-MB-435; HCT-15; SF-539; HCC 2998; SR; HL-60; BT-549; MDA-N; OVCAR-4; TK-10; NCI-H522; U-251; NCI-H23; EKVX; CCRF-CEM; MOLT-4; SK-OV-3; SK-MEL-28; SK-MEL-2.
Holding throughout (experiment): DTP human tumour cell line panel, 48 h

As to `COc1ccc(NC(C)=O)cc1N1C(=O)/C(=C\c2cc(OC)c(OC)c(OC)c2)SC1c1ccccc1` (stereo not given), the GI50 is 33.5 µM (inactive) in the assay on T47D; 36 µM (inactive) with MDA-MB-435; 38.1 µM in the assay on HCT-15; 64.6 µM (inactive) in the assay on SF-539; > 100 µM (inactive) with HCC 2998; 27.8 µM (inactive) in the assay on SR. Also, the GI50 in the assay with HL-60 is 20.4 µM (inactive); in the assay on BT-549, 97.5 µM (inactive); in the assay on MDA-N, 25.5 µM (inactive); with OVCAR-4, 39 µM (inactive); in the assay on TK-10, > 100 µM (inactive); in the assay on NCI-H522, 28.6 µM (inactive). In addition, the GI50 in the assay on U-251 was 34.7 µM (inactive); with NCI-H23, 72.8 µM (inactive); with EKVX, 24.9 µM (inactive); with CCRF-CEM, 37 µM (inactive); in the assay with MOLT-4 it was 19.3 µM (inactive); in the assay on SK-OV-3 it was 82.2 µM (inactive). In addition, the values for the GI50 in the assay on SK-MEL-28 and in the assay on SK-MEL-2 were 41.9 µM (inactive) and 57.9 µM (inactive), respectively.
With `COc1cc(OC)cc(OCc2nc3cc(C(F)(F)F)ccc3nc2-c2ccccc2)c1`, the GI50 in the assay with T47D was 48 µM (inactive); with MDA-MB-435, > 100 µM (inactive); in the assay on HCT-15 it was greater than 100 µM; in the assay with SF-539 it was > 100 µM (inactive); in the assay with HCC 2998, > 100 µM (inactive); with SR, > 100 µM (inactive). For the same molecule, the GI50 in the assay with HL-60, with BT-549, with MDA-N, in the assay on OVCAR-4, in the assay on TK-10 and in the assay with NCI-H522 was > 100 µM (inactive) throughout. The GI50 in the assay with U-251 was > 100 µM (inactive); with NCI-H23, > 100 µM (inactive); in the assay on EKVX it was 22.2 µM (inactive); with CCRF-CEM, > 100 µM (inactive); in the assay on MOLT-4, > 100 µM (inactive); with SK-OV-3 it was > 100 µM (inactive). Moreover, the GI50 in the assay with SK-MEL-28 and in the assay with SK-MEL-2 was > 100 µM (inactive) each time.
On to `CC1(C)CCC[C@](C)([C@H]2CC[C@]3(C)[C@@H]2[C@H](O)C[C@@H]2[C@@]4(C)CC[C@H](O)C(C)(C)[C@@H]4[C@H](O)C[C@]23C)O1`, for which the GI50 with T47D was 10.6 µM (inactive); in the assay with MDA-MB-435, 12.2 µM (inactive); in the assay with HCT-15, 11.6 µM; in the assay on SF-539, 11.7 µM (inactive); in the assay on HCC 2998 it was 13.9 µM (inactive); in the assay on SR, 5.31 µM (inactive). Besides, the GI50 in the assay with HL-60 is 2.16 µM (inactive); with BT-549 it was 13.8 µM (inactive); in the assay with MDA-N, 13.5 µM (inactive); with OVCAR-4 it was 10.6 µM (inactive); in the assay with TK-10, 11.3 µM (inactive); in the assay with NCI-H522 it was 12.1 µM (inactive). The GI50 is 12.3 µM (inactive) in the assay with U-251; 11.3 µM (inactive) in the assay on NCI-H23; 13.6 µM (inactive) in the assay on EKVX; 3.09 µM (inactive) in the assay with CCRF-CEM; 3.78 µM (inactive) with MOLT-4; 16.9 µM (inactive) in the assay on SK-OV-3. In addition, the figures for the GI50 in the assay on SK-MEL-28 and with SK-MEL-2 were 11.9 µM (inactive) and 13 µM (inactive), respectively.
Regarding `CC(=O)OC1CC[C@@]2(C)C(CC[C@]3(C)C2CC=C2[C@@H]4CC(C)(C)CCC4(C)CCC23C)[C@@]1(C)C(=O)O` (stereo not given in full), the GI50 is 15.4 µM (inactive) with T47D; 15.2 µM (inactive) with MDA-MB-435; 7.93 µM with HCT-15; 19.9 µM (inactive) with SF-539; 14.5 µM (inactive) with HCC 2998; 22.8 µM (inactive) in the assay on SR. The GI50 in the assay on HL-60 is 31.3 µM (inactive); with BT-549 it was 29.9 µM (inactive); with MDA-N, 21.9 µM (inactive); in the assay with OVCAR-4, 14.9 µM (inactive); in the assay with TK-10, 22.3 µM (inactive); with NCI-H522 it was 5.77 µM (inactive). Moreover, the GI50 in the assay on U-251 was 10.3 µM (inactive); with NCI-H23 it was 11.4 µM (inactive); in the assay on EKVX, 16.1 µM (inactive); in the assay with CCRF-CEM it was 23.4 µM (inactive); in the assay with MOLT-4, 17.6 µM (inactive); in the assay on SK-OV-3, 17.7 µM (inactive). Also, the GI50 in the assay with SK-MEL-28 is 21.2 µM (inactive); in the assay on SK-MEL-2 it was 15.7 µM (inactive).
Turning to `COC(=O)c1ccc(O)c2nc3c(C=O)c(O)cc(O)c3nc12` [LOMOFUNGIN], the 50% growth inhibitory concentration (GI50) with T47D was 0.397 µM (active); in the assay on MDA-MB-435 it was 0.935 µM (active); in the assay on HCT-15 it was 0.22 µM; in the assay with SF-539 it was 0.0585 µM (active); in the assay on HCC 2998, 4.93 µM (inactive); in the assay on SR it was 10.6 µM (inactive). Besides, the 50% growth inhibitory concentration (GI50) was 0.293 µM (active) in the assay on HL-60; 0.614 µM (active) in the assay with BT-549; 1.67 µM (inactive) with MDA-N; 2.76 µM (inactive) in the assay with OVCAR-4; 1.62 µM (inactive) in the assay on TK-10; 0.755 µM (active) with NCI-H522. The 50% growth inhibitory concentration (GI50) was 0.025 µM (active) in the assay with U-251; 0.139 µM (active) with NCI-H23; 1.36 µM (inactive) in the assay with EKVX; 0.259 µM (active) with CCRF-CEM; 0.225 µM (active) in the assay on MOLT-4; 2.96 µM (inactive) with SK-OV-3. The figures for the GI50 in the assay on SK-MEL-28 and in the assay with SK-MEL-2 were 1.93 µM (inactive) and 2.9 µM (inactive), respectively.
Take `O=c1oc2ccccc2c(Nc2ccc3c(c2)Oc2ccccc2O3)c1[N+](=O)[O-]`: the GI50 was 28.7 µM (inactive) in the assay on T47D; 54.3 µM (inactive) with MDA-MB-435; 44.1 µM with HCT-15; 19.2 µM (inactive) with SF-539; 28.1 µM (inactive) in the assay with HCC 2998; 38.3 µM (inactive) in the assay on SR. The GI50 is > 100 µM (inactive) with HL-60; 25.6 µM (inactive) in the assay with BT-549; 49.8 µM (inactive) in the assay on MDA-N; 23.9 µM (inactive) in the assay with OVCAR-4; 21.2 µM (inactive) in the assay with TK-10; 24.1 µM (inactive) in the assay with NCI-H522. Further, the GI50 in the assay on U-251 is 16 µM (inactive); in the assay on NCI-H23 it was 20.3 µM (inactive); with EKVX, 21.7 µM (inactive); in the assay on CCRF-CEM it was 40.3 µM (inactive); in the assay on MOLT-4, 43 µM (inactive); in the assay with SK-OV-3, 19.1 µM (inactive). The results for the GI50 with SK-MEL-28 and in the assay with SK-MEL-2 were 21.2 µM (inactive) and 16.9 µM (inactive), respectively.
Turning to `Cc1nc2ccc(S(=O)(=O)O)cc2c(=O)n1-c1ccc(C(=O)NN2C(=O)C(Cl)C2c2cccs2)cc1` (stereo not given), the GI50 with T47D is 31.3 µM (inactive); in the assay with MDA-MB-435, 27.5 µM (inactive); with HCT-15 it was greater than 100 µM; in the assay on SF-539, 48 µM (inactive); in the assay on HCC 2998 it was > 100 µM (inactive); with SR it was > 100 µM (inactive). Also, the GI50 was 17.8 µM (inactive) in the assay with HL-60; > 100 µM (inactive) in the assay with BT-549; 26.1 µM (inactive) with MDA-N; 24.5 µM (inactive) in the assay on OVCAR-4; > 100 µM (inactive) in the assay on TK-10; > 100 µM (inactive) in the assay with NCI-H522. In addition, the GI50 is > 100 µM (inactive) in the assay on U-251; > 100 µM (inactive) in the assay on NCI-H23; 18.5 µM (inactive) in the assay on EKVX; 63.1 µM (inactive) with CCRF-CEM; > 100 µM (inactive) in the assay with MOLT-4; > 100 µM (inactive) in the assay on SK-OV-3. Besides, the GI50 in the assay on SK-MEL-28 is > 100 µM (inactive); in the assay with SK-MEL-2 it was 23.3 µM (inactive).
For the molecule `N#Cc1c(N2CCCC2)ncn(Cc2ccccc2)c1=S`, the GI50 with T47D is > 86.7 µM (inactive); in the assay on MDA-MB-435, > 100 µM (inactive); in the assay with HCT-15, greater than 100 µM; in the assay on SF-539, 40.1 µM (inactive); in the assay on HCC 2998, > 100 µM (inactive); with SR, > 100 µM (inactive). Moreover, the GI50 in the assay on HL-60 is > 100 µM (inactive); with BT-549, > 100 µM (inactive); with MDA-N it was > 100 µM (inactive); with OVCAR-4, 44.2 µM (inactive); in the assay with TK-10, > 100 µM (inactive); with NCI-H522, > 90.4 µM (inactive). Besides, the GI50 with U-251 is 38.9 µM (inactive); in the assay on NCI-H23, > 100 µM (inactive); in the assay with EKVX it was > 79.3 µM (inactive); in the assay on CCRF-CEM, > 100 µM (inactive); in the assay with MOLT-4, > 100 µM (inactive); in the assay on SK-OV-3 it was > 100 µM (inactive). Moreover, the GI50 in the assay on SK-MEL-28 and with SK-MEL-2 was > 100 µM (inactive) in each case.
For the molecule `CCOC(=O)N1N=C(/C(C)=N/OC)C(C)[S+]1[O-]` (stereo not given), the GI50 in the assay on T47D is > 100 µM (inactive); in the assay with MDA-MB-435 it was > 100 µM (inactive); in the assay with HCT-15 it was greater than 100 µM; in the assay with SF-539, > 100 µM (inactive); with HCC 2998, > 100 µM (inactive); in the assay on SR, > 100 µM (inactive). The GI50 with HL-60, in the assay on BT-549, with MDA-N, in the assay on OVCAR-4, with TK-10 and with NCI-H522 was > 100 µM (inactive) each time. Further, the GI50 in the assay on U-251, in the assay on NCI-H23, in the assay on EKVX, in the assay on CCRF-CEM, in the assay with MOLT-4 and with SK-OV-3 was > 100 µM (inactive) throughout. Further, the GI50 with SK-MEL-28 and with SK-MEL-2 was > 100 µM (inactive) throughout.
Turning to `N=C1OC(c2cccc(Cl)c2)C(NNS(=O)(=O)c2ccccc2)=C1O` (stereo not given), the GI50 is 10 µM (inactive) in the assay on T47D; 33 µM (inactive) in the assay on MDA-MB-435; 12.2 µM in the assay on HCT-15; 33.4 µM (inactive) in the assay on SF-539; 36.4 µM (inactive) in the assay on HCC 2998; 2.37 µM (inactive) in the assay on SR. Moreover, the GI50 in the assay with HL-60 is 2.87 µM (inactive); with BT-549, 37 µM (inactive); with MDA-N, 14.5 µM (inactive); in the assay on OVCAR-4, 52.5 µM (inactive); in the assay with TK-10 it was 37.7 µM (inactive); with NCI-H522 it was 10.6 µM (inactive). The GI50 in the assay with U-251 is 33.3 µM (inactive); with NCI-H23, 25.8 µM (inactive); in the assay with EKVX it was 68.4 µM (inactive); in the assay with CCRF-CEM, 2.32 µM (inactive); in the assay with MOLT-4, 4.11 µM (inactive); with SK-OV-3, > 100 µM (inactive). Further, the GI50 in the assay with SK-MEL-28 is 20.9 µM (inactive); with SK-MEL-2 it was 24.9 µM (inactive).
